# Assay results: patent US8822482B2, “Icotinib hydrochloride, synthesis, crystalline forms, pharmaceutical compositions, and uses thereof” (Beta Pharma, Inc., priority 2008, dated 2014)
# Like-named read-outs stand apart in the source and are kept apart here.
# Tests used:
# [1] = molecular target: Arg (abl-related gene) tyrosine kinase (Homo sapiens, UniProt P42684); assay: Selectivity: inhibition of Arg tyrosine kinase, Crk substrate phosphorylation, same methodology; assay type: biochemical; conditions: 62.5 nM
# Chain of Arg (abl-related gene) tyrosine kinase (P42684 whole entry): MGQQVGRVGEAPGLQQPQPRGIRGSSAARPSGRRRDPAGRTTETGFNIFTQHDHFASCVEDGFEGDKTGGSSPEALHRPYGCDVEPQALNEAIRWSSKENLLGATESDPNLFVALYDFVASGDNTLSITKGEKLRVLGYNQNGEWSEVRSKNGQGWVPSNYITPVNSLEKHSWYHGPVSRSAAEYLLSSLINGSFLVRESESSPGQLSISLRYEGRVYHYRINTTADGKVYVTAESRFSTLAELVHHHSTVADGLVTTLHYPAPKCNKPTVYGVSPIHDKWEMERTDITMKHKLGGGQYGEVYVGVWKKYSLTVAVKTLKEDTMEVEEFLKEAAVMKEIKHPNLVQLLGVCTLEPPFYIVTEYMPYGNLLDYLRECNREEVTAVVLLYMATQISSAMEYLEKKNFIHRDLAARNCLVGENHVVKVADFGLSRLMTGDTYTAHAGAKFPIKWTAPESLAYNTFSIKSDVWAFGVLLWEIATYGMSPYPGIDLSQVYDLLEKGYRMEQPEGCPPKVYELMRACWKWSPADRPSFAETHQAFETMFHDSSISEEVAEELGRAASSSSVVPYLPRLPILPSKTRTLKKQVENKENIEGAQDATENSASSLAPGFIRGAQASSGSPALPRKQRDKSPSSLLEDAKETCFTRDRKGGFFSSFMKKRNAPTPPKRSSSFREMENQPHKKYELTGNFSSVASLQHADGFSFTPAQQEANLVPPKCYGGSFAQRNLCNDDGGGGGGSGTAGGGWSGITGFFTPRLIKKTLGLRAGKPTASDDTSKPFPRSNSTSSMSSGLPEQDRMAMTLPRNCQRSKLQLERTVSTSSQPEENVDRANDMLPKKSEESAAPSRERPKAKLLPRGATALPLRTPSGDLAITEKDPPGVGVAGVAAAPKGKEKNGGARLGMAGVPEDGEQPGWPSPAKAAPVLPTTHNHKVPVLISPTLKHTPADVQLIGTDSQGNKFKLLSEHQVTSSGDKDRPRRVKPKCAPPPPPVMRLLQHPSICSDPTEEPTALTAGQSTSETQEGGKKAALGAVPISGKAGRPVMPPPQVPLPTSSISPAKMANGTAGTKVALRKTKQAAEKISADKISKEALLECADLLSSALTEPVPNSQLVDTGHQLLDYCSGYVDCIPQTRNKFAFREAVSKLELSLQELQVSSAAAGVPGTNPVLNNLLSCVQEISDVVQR
# Protocol: Method: This method is based on the ability of protein kinases to catalyze substrate phosphorylation; radioisotope ^32P-labeled ATP (^32P-γ-ATP) is utilized in the reaction system to radioactively tag the protein substrate with ^32P. After separation and isolation of the protein substrate by polyacrylamide gel electrophoresis, the intensity of the radioactive ^32P-labeled protein substrate is recorded.
# The kinase reaction buffer included 1 μM of non-isotope labeled-ATP. […] The mixture was incubated on ice for 10 min, and 1 μCi of ^32P-γ-ATP was then added. After incubation at 30° C. for 20 min, SDS (sodium dodecyl sulfate) sample buffer was added, and the mixture was boiled in a 100° C. water bath for 4 min. The samples were separated by 10% SDS-PAGE. After vacuum drying of the polyacrylamide gel, the intensity of radioactively labeled proteins were measured and recorded using a Phosphorimager (Molecular Dynamics Inc.). The signal was quantitatively analyzed utilizing ImageQuant software. The degree of Crk substrate phosphorylation was used to estimate the activity of the kinase. Inhibition (%)=(1−kinase activity of the test group/kinase activity of control group)×100%
# [2] = test system: human A431 (human epidermoid carcinoma cell line) xenograft tumor; assay: Tumor inhibition on human A431 xenograft in nude mice; assay type: in vivo, BALB/C nude mice
# Description: This was a preliminary study to compare Icotinib hydrochloride Crystalline Form I with erlotinib hydrochloride on inhibition of human A431 (human epidermoid carcinoma cell line) xenograft tumor.
# Methods: The high EGFR-expressing human A431 (human epidermoid carcinoma cell line) cell line was selected for the xenograft study.
# Tumor transplantation method: A431 human epidermoid cancer cells were inoculated subcutaneously in the right armpit of BALB/C nude mice to generate tumor nodules. These nodules were harvested, cut into 6 mm^3 blocks for routine inoculation and implanted into each mouse for the study. When tumors reached approximately 20 mm^3 in size (6-7 days), the animals were randomly divided into 4 groups of 6-9 animals/each group and body weights were recorded. The groups consisted of a control group (no drug treatment), an erlotinib hydrochloride treatment group (200 mg/kg) and high and low dose Icotinib hydrochloride Crystalline Form I treatment groups (200 and 50 mg/kg). Drugs were administered by oral gavage once daily; dosing frequency depended on the individual case for tumor growth. Tumor volume [tumor volume (V)=tumor size (L)×short diameter of tumor (S)^2/2] was measured using calipers once every 3 days. The animals were sacrificed 24-hour after the last drug administration and weighed. The tumor was removed and weighed to accurately calculate the tumor size. All group data was analyzed using the t test. If the p value was <0.05, it was considered to be statistically significant. Efficacy determination: tumor inhibition rate=[1−treatment group mean tumor weight (T)/control group mean tumor weight (C)]×100%
# [3] = test system: advanced non-small cell lung cancer (NSCLC); assay: Phase IIa clinical trial in advanced NSCLC patients; assay type: in vivo, human
# Description: Definitions of terms used: PR: partial remission, CR: complete remission, SD: stable disease, PD: progression of disease, ORR: objective response rate, DCR: disease control rate.
# [4] = test system: H460 human lung adenocarcinoma xenograft; assay type: in vivo
# [5] = test system: KB human epidermoid carcinoma cells; assay: Tumor cell growth inhibition in vitro, MTT assay; assay type: cell-based
# Protocol: (§1) Method: Cells (˜2×10^3) were seeded in 96-well plates in 200 μL of RPMI1640 cell culture medium supplemented with 10% FBS. After 24 hours at 37° C. and 5% CO2, the medium was replaced in quintuplicate wells with medium containing Icotinib hydrochloride Crystalline Form I dissolved in DMSO and then serial diluted, yielding final Icotinib concentrations of 0.05-300 μM. DMSO concentrations were less than 0.1% at the highest drug concentrations. Cells were incubated in medium alone with 0.1% DMSO as a negative control. Following a 96 hr incubation, the MTT [3-(4,5-dimethylthiazol-2-yl)-2,5-diphenyltetrazolium] colorimetric assay was performed using a microplate reader (reference wavelength 450 nm, detection wavelength 570 nm). The logarithm of drug concentration on the inhibition rate was linear, and the half inhibitory concentration of the drug (IC50) was obtained.
# [6] = test system: H460 human lung adenocarcinoma cells; assay: Tumor cell growth inhibition in vitro, MTT assay; assay type: cell-based
# Protocol: as §1
# [7] = test system: BEL-7402 human hepatoma cells; assay: Tumor cell growth inhibition in vitro, MTT assay; assay type: cell-based
# Protocol: as §1
# [8] = test system: BGC-823 human gastric cancer cells; assay: Tumor cell growth inhibition in vitro, MTT assay; assay type: cell-based
# Protocol: as §1
# [9] = test system: A431 human epidermoid carcinoma; assay: Tumor cell growth inhibition in vitro, MTT assay; assay type: cell-based; conditions: A-431, A431, 96 hr
# Protocol: as §1
# [10] = test system: A549 human non-small cell lung cancer cells; assay: Tumor cell growth inhibition in vitro, MTT assay; assay type: cell-based
# Protocol: as §1
# [11] = test system: HCT8 human colon cancer cells; assay: Tumor cell growth inhibition in vitro, MTT assay; assay type: cell-based
# Protocol: as §1
# [12] = 225 mg/day (75 mg, 3 times a day)
# [13] = 300 mg/day (100 mg, 3 times a day)
# [14] = 300 mg/day (150 mg, Twice a day)
# [15] = 375 mg/day (125 mg, 3 times a day)
# [16] = 400 mg/day (200 mg, Twice a day)
# [17] = 450 mg/day (150 mg, 3 times a day)
# [18] = 600 mg/day (200 mg, 3 times a day)
smiles,measurement,setting,value
"C#Cc1cccc(Nc2ncnc3cc4c(cc23)OCCOCCOCCO4)c1.Cl [4-[(3-ethynyl-phenyl)amino]-6,7-benzo-12-crown-quinazoline hydrochloride]",inhibition of Arg kinase,[1],did not inhibit
same,body weight and appearance at experiment termination,[2]; A431 xenograft nude mice,gained weight
same,tumor inhibition rate,"[2]; A431 xenograft, 200 mg/kg oral gavage once daily (later reduced to 100 mg/kg)",64.6%
same,toxic effects,[2]; at either dose (200 and 50 mg/kg),No toxic effects were observed
same,anti-tumor effect (in words),"[2]; given orally, A431 xenograft mouse model",significant anti-tumor effects
same,"CR (complete remission), number of patients",[3]; [12],0
same,DCR (disease control rate),[3]; [12],85.70%
same,ORR (objective response rate),[3]; [12],0.00%
same,"PD (progression of disease), number of patients",[3]; [12],1
same,"PR (partial remission), number of patients",[3]; [12],0
same,"CR (complete remission), number of patients",[3]; [13],2
same,DCR (disease control rate),[3]; [13],62.96%
same,ORR (objective response rate),[3]; [13],25.93%
same,"PD (progression of disease), number of patients",[3]; [13],10
same,"PR (partial remission), number of patients",[3]; [13],5
same,"CR (complete remission), number of patients",[3]; [14],1
same,DCR (disease control rate),[3]; [14],69.57%
same,ORR (objective response rate),[3]; [14],30.43%
same,"PD (progression of disease), number of patients",[3]; [14],4
same,"PR (partial remission), number of patients",[3]; [14],6
same,"CR (complete remission), number of patients",[3]; [15],0
same,DCR (disease control rate),[3]; [15],91.70%
same,ORR (objective response rate),[3]; [15],37.50%
same,"PD (progression of disease), number of patients",[3]; [15],2
same,"PR (partial remission), number of patients",[3]; [15],9
same,"CR (complete remission), number of patients",[3]; [16],0
same,DCR (disease control rate),[3]; [16],55.56%
same,ORR (objective response rate),[3]; [16],0.00%
same,"PD (progression of disease), number of patients",[3]; [16],3
same,"PR (partial remission), number of patients",[3]; [16],0
same,"CR (complete remission), number of patients",[3]; [17],0
same,DCR (disease control rate),[3]; [17],90.10%
same,ORR (objective response rate),[3]; [17],45.45%
same,"PD (progression of disease), number of patients",[3]; [17],1
same,"PR (partial remission), number of patients",[3]; [17],5
same,"CR (complete remission), number of patients",[3]; [18],0
same,DCR (disease control rate),[3]; [18],66.67%
same,ORR (objective response rate),[3]; [18],0.00%
same,"PD (progression of disease), number of patients",[3]; [18],1
same,treatment of non-small cell lung cancer (in words),"[3]; advanced NSCLC patients, oral tablets",effective
same,H460 tumor inhibition rate,[4]; 30 mg/kg oral gavage once daily for 14 days,37.5%
same,H460 tumor inhibition rate,[4]; 60 mg/kg oral gavage once daily for 14 days,49.3%
same,H460 tumor inhibition rate,[4]; 120 mg/kg oral gavage once daily for 14 days,52.0%
same,activity against tumor cells (in words),[5],low activity
same,IC50,"[5]; Homo sapiens, 96 hr, MTT",40.7 µM
same,IC50,"[6]; H460, 96 hr, listed as lcotinib hydrochloride Crystalline Form I, hydrochloride",16.1 µM
same,IC50,"[6]; Homo sapiens, NCI-H460, 96 h",16 µM
same,activity against tumor cells (in words),[7]; BEL-7402,low activity
same,IC50,"[7]; Homo sapiens, BEL-7402, 96 hr, MTT",> 200 µM
same,IC50,"[8]; BGC-823, 96 hr, listed as lcotinib hydrochloride Crystalline Form I, hydrochloride",4.06 µM
same,IC50,"[8]; Homo sapiens, BGC-823, 96 h",4 µM
same,IC50,[9],1000 nM
same,IC50,"[10]; A549, 96 hr, listed as lcotinib hydrochloride Crystalline Form I, hydrochloride",12.2 µM
same,IC50,"[10]; Homo sapiens, A549, 96 h",12 µM
same,activity against tumor cells (in words),[11]; HCT8,low activity
same,IC50,"[11]; Homo sapiens, HCT-8, HCT8, 96 hr, MTT",> 200 µM
